Source: US20110212908A1, “TOPICAL COMPOSITIONS AND THE USE THEREOF” (priority 2005, published 2011)

test system: Pseudomonas; assay: Inhibition of adhesion of Pseudomonas strains P1, P2, P3 on canine corneocytes; assay type: cell-based; settings: monosaccharides at 0.05% and 0.1% in PBS, vs positive control without monosaccharides (100%)
Procedure: A study comparing the inhibition, by monosaccharides, of the adhesion of three different strains of Pseudomonas, P1, P2, P3, was conducted on canine corneocytes. The three monosaccharides studied are respectively D-galactose, D-mannose and L-rhamnose.
The three strains of Psedomonas were taken from dogs with infectious otitis. Corneocytes were taken from six different healthy dogs using D-squame™-brand adhesive pads, sold by the CuDerm™ Company.
Bacterial suspensions were produced, each containing one of the three strains P1, P2 or P3, and PBS (phosphate-buffered saline) with or without monosaccharides at two concentrations (0.05% and 0.1%). These suspensions were each placed on a corneocyte layer. These layers were then incubated in a humidity chamber. After incubation, the corneocytes were washed and stained. The adherent Pseudomonas were then quantified by computer-assisted image analysis.
The percentage of adherence of the strains in the presence of monosaccharides was then calculated with respect to the percentage of adherence of the strains without monosaccharides (positive control).
The adherence percentages were compared for the three strains P1 to P3 with respect to the positive control (100%).

| SMILES | mean inhibition percentage for the three Pseudomonas strains |
| --- | --- |
| O=C[C@H](O)[C@@H](O)[C@@H](O)[C@H](O)CO [D-galactose] | 25.6% |
| O=C[C@@H](O)[C@@H](O)[C@H](O)[C@H](O)CO [D-mannose] | 19.4% |
| C[C@H](O)[C@H](O)[C@@H](O)[C@@H](O)C=O [L-rhamnose] | 30.8% |
